# In patent US9261498B2, “Biomarker for sensitivity to mTOR inhibitor therapy in kidney cancer” (The Regents of the University of California, priority 2005, dated 2016):
# Tested on: VHL knockdown xenograft tumors
# Test: FDG microPET imaging of xenograft tumors
# Assay type: in vivo, SCID mice
# Conditions: within 24 hours, CCI-779 0.1 mg/kg i.p. every 12 hours; uptake normalized to liver
# Description: FIGS. 5A-5B. […] (a) Representative images of two SCID-mice bearing isogenic ACHN-xenograft tumors on the right flank before and after two doses of CCI-799 (0.1 mg/kg). Arrows indicate the location of subcutaneous xenograft tumors (innate increased signal intensity due to abdominal brown fat and glial tissue are observed in the thorax and skull of the mice). (b) Quantification of FDG uptake (+/−SEM) in SCID-mice bearing either ACHN-vector or ACHN-CSCG VHL shRNA subcutaneous xenografts. FDG-tumor uptake was normalized to hepatic FDG-uptake for each mouse. n=3 per group and experiments were repeated twice with identical results.
# Total RNA was extracted from SN12C-CSCG, ACHN-CSCG, SN12C-CSCG-VHLshRNA and ACHN-CSCG-VHL shRNA cell lines treated with vehicle or 10 nM of CCI-779 using the RNeasy kit (Qiagen). Two μg of total RNA was used as a template for the production of c DNA through reverse transcription. […] Threshold cycles (Ct's) for the RT samples were recorded. […] Tracer uptake by the tumors was expressed as the ratio between the maximum intratumoral and mean hepatic counts/pixel. All quantitative values are reported as mean±standard error of the mean (SEM).
compound,measurement,value
CO[C@H]1C[C@@H]2CC[C@@H](C)[C@@](O)(O2)C(=O)C(=O)N2CCCC[C@H]2C(=O)O[C@H]([C@H](C)C[C@@H]2CC[C@@H](OC(=O)C(C)(CO)CO)[C@H](OC)C2)CC(=O)[C@H](C)/C=C(\C)[C@@H](O)[C@@H](OC)C(=O)[C@H](C)C[C@H](C)/C=C/C=C/C=C/1C [CCI-779],FDG uptake of VHL knockdown tumors,reduced to baseline
